Literature values, collected in patent US6465192B2, “Compounds and methods for the inhibition of protein-protein interactions” (priority 1997, dated 2002).

Tests used:
[1] = halogen substitutions of the phenyl ring, SN1

Molecule	forward reaction rate with lysine side chains in proteins (physiological conditions)	non-specific covalent bonding rate constant to form stable bonds with amino acid side chains (side chains such as those of serine and lysine)	Relative reaction rate [1]
penicillin	about 1×10^−5 /M/sec	about 8×10^−6 /M/sec	
COc1ccc([N+](=O)[O-])c(F)c1CBr [R = F, 2-methoxy-5-nitro-6-fluorobenzyl bromide]			0.05
COc1ccc([N+](=O)[O-])c(Br)c1CBr [R = Br, 2-methoxy-5-nitro-6-bromobenzyl bromide]			0.006
